Source: PubChem BioAssay (NCI)
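Five concentrations, 48 hours, 96-well plates. At the GI50, growth is halved. TGI: concentration producing complete growth inhibition.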

Assays:
Experiment in all cases: DTP human tumour cell line panel, 48 h
[1] = system: 786-0 renal
[2] = system: A498 renal
[3] = system: A549 NSCLC
[4] = system: ACHN renal
[5] = system: BT-549 breast
[6] = system: CAKI-1 renal
[7] = system: CCRF-CEM leukemia
[8] = system: COLO 205 colon
[9] = system: DU-145 prostate
[10] = system: EKVX NSCLC
[11] = system: HCC-2998 colon
[12] = system: HCT-116 colon
[13] = system: HCT-15 colon
[14] = system: HL-60(TB) leukemia
[15] = system: HOP-62 NSCLC
[16] = system: HOP-92 NSCLC
[17] = system: HS 578T breast
[18] = system: HT29 colon
[19] = system: IGROV1 ovarian
[20] = system: K-562 leukemia
[21] = system: KM12 colon
[22] = system: LOX IMVI melanoma
[23] = system: M14 melanoma
[24] = system: MALME-3M melanoma
[25] = system: MCF7 breast
[26] = system: MDA-MB-231 breast
[27] = system: MDA-MB-435
[28] = system: MOLT-4 leukemia
[29] = system: NCI-H226 lung
[30] = system: NCI-H460 lung
[31] = system: NCI-H522 lung
[32] = system: NCI/ADR-RES ovarian
[33] = system: OVCAR-3 ovarian
[34] = system: OVCAR-4 ovarian
[35] = system: OVCAR-5 ovarian
[36] = system: OVCAR-8 ovarian
[37] = system: PC-3 prostate
[38] = system: RPMI-8226 leukemia
[39] = system: RXF 393 renal
[40] = system: SF-268 CNS
[41] = system: SF-295 CNS
[42] = system: SF-539 CNS
[43] = system: SK-MEL-2 melanoma
[44] = system: SK-MEL-28 melanoma
[45] = system: SK-MEL-5 melanoma
[46] = system: SK-OV-3 ovarian
[47] = system: SN12C renal
[48] = system: SNB-19 CNS
[49] = system: SNB-75 CNS
[50] = system: SR leukemia
[51] = system: SW-620 colon
[52] = system: T-47D breast
[53] = system: TK-10 renal
[54] = system: U251 CNS
[55] = system: UACC-257 melanoma
[56] = system: UACC-62 melanoma
[57] = system: UO-31 renal

In the case of `CCNC(=O)N1CCc2cc(OC)c(OCCc3ccc(OC)c(N)c3)cc2C1c1ccc(C)cc1C` (stereo not drawn), the GI50 [1] is reported as 165 nM, the TGI [1] is reported as 92 µM and the GI50 [2] is reported as 2780 nM. The GI50 [3] was 151 nM, the TGI [3] was > 100 µM and the GI50 [4] was 121 nM. The TGI [4] was > 60.4 µM, the GI50 [5] was 349 nM and the TGI [5] was 3.46 µM. The GI50 [6] was 161 nM, the TGI [6] was 31.4 µM and the GI50 [7] was 58.6 nM. The TGI [7] was > 76.6 µM, the GI50 [8] was 318 nM and the TGI [8] was 2820 nM. For the same molecule, the GI50 [9] was 208 nM, the TGI [9] was > 40.8 µM and the GI50 [10] was 1510 nM. For the same molecule, the TGI [10] was > 100 µM, the GI50 [11] was 344 nM and the TGI [11] was 23.3 µM. The GI50 [12] was 31.1 nM, the TGI [12] was 25.8 µM and the GI50 [13] was < 26.3 nM. For the same molecule, the TGI [13] was > 100 µM, the GI50 [14] was 100 nM and the TGI [14] was 1820 nM. For the same molecule, the GI50 [15] was 226 nM, the TGI [15] was > 46.4 µM and the GI50 [16] was 4.81 µM. The TGI [16] was 56.7 µM, the GI50 [17] was 273 nM and the TGI [17] was 23.8 µM. For the same molecule, the GI50 [18] was 261 nM, the TGI [18] was 1770 nM and the GI50 [19] was 132 nM. The TGI [19] was > 100 µM, the GI50 [20] was 29.1 nM and the TGI [20] was > 100 µM. The GI50 [21] was 493 nM, the TGI [21] was 65.9 µM and the GI50 [22] was 36.5 nM. The TGI [22] was 1740 nM, the GI50 [23] was 205 nM and the TGI [23] was 15.2 µM. The GI50 [24] was 624 nM, the TGI [24] was 76.1 µM and the GI50 [25] was 63.4 nM. The TGI [25] was > 83.5 µM, the GI50 [26] was 134 nM and the TGI [26] was > 56.3 µM. It also gave a GI50 [27] of 139 nM, a TGI [27] of 496 nM and a GI50 [28] of 38.4 nM. For the same molecule, the TGI [28] was > 100 µM, the GI50 [29] was 643 nM and the TGI [29] was 14.6 µM. For the same molecule, the GI50 [30] was 30.9 nM, the TGI [30] was 1890 nM and the GI50 [31] was 98.4 nM. The TGI [31] was 440 nM, the GI50 [32] was 229 nM and the TGI [32] was 2460 nM. It also gave a GI50 [33] of 150 nM, a TGI [33] of 22.2 µM and a GI50 [34] of 1470 nM. For the same molecule, the TGI [34] was > 100 µM, the GI50 [35] was 538 nM and the TGI [35] was > 100 µM. For the same molecule, the GI50 [36] was 105 nM, the TGI [36] was 34.3 µM and the GI50 [37] was 54.8 nM. For the same molecule, the TGI [37] was > 100 µM, the GI50 [38] was 89.9 nM and the TGI [38] was 1600 nM. For the same molecule, the GI50 [39] was 234 nM, the TGI [39] was 5.01 µM and the GI50 [40] was 278 nM. The TGI [40] was > 95.3 µM, the GI50 [41] was 164 nM and the TGI [41] was 11.1 µM. The GI50 [42] was 77.1 nM, the TGI [42] was 1740 nM and the GI50 [43] was 996 nM. For the same molecule, the TGI [43] was 14.4 µM, the GI50 [44] was 283 nM and the TGI [44] was 23.3 µM. It also gave a GI50 [45] of 106 nM, a TGI [45] of 1700 nM and a GI50 [46] of 533 nM. For the same molecule, the TGI [46] was > 90 µM, the GI50 [47] was 294 nM and the TGI [47] was 22.2 µM. For the same molecule, the GI50 [48] was 191 nM, the TGI [48] was > 100 µM and the GI50 [49] was 184 nM. For the same molecule, the TGI [49] was 4.27 µM, the GI50 [50] was 27 nM and the TGI [50] was 6.24 µM. The GI50 [51] was 106 nM, the TGI [51] was > 100 µM and the GI50 [52] was 280 nM. For the same molecule, the TGI [52] was 92.8 µM, the GI50 [53] was 2140 nM and the TGI [53] was > 100 µM. The GI50 [54] was 74.3 nM, the TGI [54] was 24.6 µM and the GI50 [55] was 533 nM. The TGI [55] was > 82 µM, the GI50 [56] was 105 nM and the TGI [56] was 2750 nM. For the same molecule, the GI50 [57] was 238 nM and the TGI [57] was > 95 µM.
